What follows are compounds tested against T1, Cys12 of the KRAS 4B G12C protein (Homo sapiens, UniProt P01116, G12C) (assay: In vitro covalent adduct formation (CAF) assay, LC-MS intact mass). Settings: 10 uM compound, 60 min.
T1 construct: This protein contained 188 amino acids in total, including an N-terminal 6-Histidine tag; made in house; host or cells: E. coli BL21
Format: binding
Procedure, shortened: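 GDP-loaded (>95%) His-TEV-tagged KRAS 4B G12C (residues 1–169), 5 μM in TBS pH 7.4, incubated with 10 μM compound (4% DMSO) at 22° C for one hour. Intact-protein LC-MS gave free:adduct ratios, reported as percent protein modified; duplicate runs.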

Compound	% CAF 10 uM @ 60 min
C=CC(=O)N1C[C@H](C)N(c2nc(=O)n3c4c(c(-c5cc(Cl)c(F)cc5F)c(C(F)(F)F)cc24)SC[C@@H]3CN2CCN(C3CC3)CC2)C[C@H]1C [Example 1307, (3S)-7-((2S,5R)-4-acryloyl-2,5-dimethylpiperazin-1-yl)-10-(5-chloro-2,4-difluorophenyl)-3-((4-cyclopropylpiperazin-1-yl)methyl)-9-(trifluoromethyl)-2,3-dihydro-5H-[1,4]thiazino[2,3,4-ij]quinazolin-5-one]	69.7%
[2H]C1([2H])N(C(=O)C=C)C([2H])([2H])C([2H])([2H])N(c2nc(=O)n3c4c(c(-c5cc(Cl)c(F)cc5F)c(C(F)(F)F)cc24)SCC2(COC2)C3)C1([2H])[2H] [Example 1309, 8′-(4-acryloylpiperazin-1-yl-2,2,3,3,5,5,6,6-d8)-11′-(5-chloro-2,4-difluorophenyl)-10′-(trifluoromethyl)-2′H,4′H,6′H-spiro[oxetane-3,3′-[1,4]thiazepino[2,3,4-ij]quinazolin]-6′-one]	97%
C=CC(=O)N1C[C@H](C)N(c2nc(=O)n3c4c(c(-c5cccc6cnn(C)c56)c(Cl)cc24)SC[C@@H]3CN2CCN(C3CC3)CC2)C[C@H]1C [Example 1310, (3S)-7-((2S,5R)-4-acryloyl-2,5-dimethylpiperazin-1-yl)-9-chloro-3-((4-cyclopropylpiperazin-1-yl)methyl)-10-(1-methyl-1H-indazol-7-yl)-2,3-dihydro-5H-[1,4]thiazino[2,3,4-ij]quinazolin-5-one]	95%
C=CC(=O)N1CCN(c2nc(=O)n3c4c(c(-c5cc(Cl)c(F)cc5F)c(C(F)(F)F)cc24)SC[C@@H]3CN2C[C@@H]3C[C@H]2CO3)CC1 [Example 1311]	95.4%
C=CC(=O)N1[C@H](C)CN(c2nc(=O)n3c4c(c(-c5ccc(F)c(Cl)c5)c(C(F)(F)F)cc24)SC[C@@H]3COC)C[C@@H]1C [Example 1316, (S)-7-((3S,5R)-4-acryloyl-3,5-dimethylpiperazin-1-yl)-10-(3-chloro-4-fluorophenyl)-3-(methoxymethyl)-9-(trifluoromethyl)-2,3-dihydro-5H-[1,4]thiazino[2,3,4-ij]quinazolin-5-one]	96%
C=CC(=O)N1CCN(c2nc(=O)n3c4c(c(-c5ccc(F)cc5)c(C(F)(F)F)cc24)SC[C@@H]3CN2CCN(C3CC3)CC2)CC1 [Example 1321, (S)-7-(4-acryloylpiperazin-1-yl)-3-((4-cyclopropylpiperazin-1-yl)methyl)-10-(4-fluorophenyl)-9-(trifluoromethyl)-2H-[1,4]thiazino[2,3,4-ij]quinazolin-5(3H)-one]	99.3%
C=CC(=O)N1C[C@H](C)N(c2nc(=O)n3c4c(c(-c5ccc(F)cc5)c(C(F)(F)F)cc24)SC[C@@H]3COCOC)C[C@H]1C [Example 1328, (S)-7-((2S,5R)-4-acryloyl-2,5-dimethylpiperazin-1-yl)-10-(4-fluorophenyl)-3-((methoxymethoxy)methyl)-9-(trifluoromethyl)-2,3-dihydro-5H-[1,4]thiazino[2,3,4-ij]quinazolin-5-one]	93.8%
C=CC(=O)N1[C@H](C)CN(c2nc(=O)n3c4c(c(-c5ccc(F)cc5)c(C(F)(F)F)cc24)SC[C@@H]3CN2CCN(C3CC3)CC2)C[C@@H]1C [Example 1333, (S)-7-((3S,5R)-4-acryloyl-3,5-dimethylpiperazin-1-yl)-3-((4-cyclopropylpiperazin-1-yl)methyl)-10-(4-fluorophenyl)-9-(trifluoromethyl)-2,3-dihydro-5H-[1,4]thiazino[2,3,4-ij]quinazolin-5-one]	61%
C=CC(=O)N1[C@H](C)CN(c2nc(=O)n3c4c(c(-c5ccc(F)c(Cl)c5)c(C(F)(F)F)cc24)SC[C@H](N2CCOCC2)C3)C[C@@H]1C [Example 1336, (R)-8-((3S,5R)-4-acryloyl-3,5-dimethylpiperazin-1-yl)-11-(3-chloro-4-fluorophenyl)-3-morpholino-10-(trifluoromethyl)-3,4-dihydro-2H,6H-[1,4]thiazepino[2,3-4-ij]quinazolin-6-one]	85.5%
C=CC(=O)N1[C@H](C)CN(c2nc(=O)n3c4c(c(-c5ccc(F)c(OC(F)F)c5)c(Cl)cc24)SC[C@@H]3COC)C[C@@H]1C [Example 1343, (S)-7-((3S,5R)-4-acryloyl-3,5-dimethylpiperazin-1-yl)-9-chloro-10-(3-(difluoromethoxy)-4-fluorophenyl)-3-(methoxymethyl)-2,3-dihydro-5H-[1,4]thiazino[2,3,4-ij]quinazolin-5-one]	96%
C=CC(=O)N1[C@H](C)CN(c2nc(=O)n3c4c(c(-c5ccc(F)cc5F)c(Cl)cc24)SC[C@@H]3COC)C[C@@H]1C [Example 1343a, (3S)-7-((3S,5R)-4-acryloyl-3,5-dimethylpiperazin-1-yl)-9-chloro-10-(2,4-difluorophenyl)-3-(methoxymethyl)-2,3-dihydro-5H-[1,4]thiazino[2,3,4-ij]quinazolin-5-one]	96.8%
C=CC(=O)N1[C@H](C)CN(c2nc(=O)n3c4c(c(-c5ccc(F)cc5)c(C(F)(F)F)cc24)SC[C@@H]3CN2CCN(CC)CC2)C[C@@H]1C [Example 1344, (S)-7-((3S,5R)-4-acryloyl-3,5-dimethylpiperazin-1-yl)-3-((4-ethylpiperazin-1-yl)methyl)-10-(4-fluorophenyl)-9-(trifluoromethyl)-2,3-dihydro-5H-[1,4]thiazino[2,3,4-ij]quinazolin-5-one]	96%
C=CC(=O)N1CCN(c2nc(=O)n3c4c(c(-c5ccc(F)c(Cl)c5)c(C(F)(F)F)cc24)SC[C@@H]3COC)CC1 [Example 1345, (S)-7-(4-acryloylpiperazin-1-yl)-10-(3-chloro-4-fluorophenyl)-3-(methoxymethyl)-9-(trifluoromethyl)-2,3-dihydro-5H-[1,4]thiazino[2,3,4-ij]quinazolin-5-one]	90%
C=CC(=O)N1CCN(c2nc(=O)n3c4c(c(-c5ccc(F)cc5)c(C(F)(F)F)cc24)SC[C@@H]3CN2C[C@@H]3C[C@H]2CO3)CC1 [Example 1350, (S)-3-(((1S,4S)-2-oxa-5-azabicyclo[2.2.1]heptan-5-yl)methyl)-7-(4-acryloylpiperazin-1-yl)-10-(4-fluorophenyl)-9-(trifluoromethyl)-2,3-dihydro-5H-[1,4]thiazino[2,3,4-ij]quinazolin-5-one]	81.3%
C=CC(=O)N1C[C@H](C)N(c2nc(=O)n3c4c(c(-c5ccc(F)cc5)c(C(F)(F)F)cc24)SC[C@@H]3CN2C[C@@H]3C[C@H]2CO3)C[C@H]1C [Example 1351, (S)-3-(((1S,4S)-2-oxa-5-azabicyclo[2.2.1]heptan-5-yl)methyl)-7-((2S,5R)-4-acryloyl-2,5-dimethylpiperazin-1-yl)-10-(4-fluorophenyl)-9-(trifluoromethyl)-2,3-dihydro-5H-[1,4]thiazino[2,3,4-ij]quinazolin-5-one]	64.8%
C=CC(=O)N1[C@H](C)CN(c2nc(=O)n3c4c(c(-c5ccc(F)cc5)c(C(F)(F)F)cc24)SC[C@@H]3CN2C[C@@H]3C[C@H]2CO3)C[C@@H]1C [Example 1352, (S)-3-(((1S,4S)-2-oxa-5-azabicyclo[2.2.1]heptan-5-yl)methyl)-7-((3S,5R)-4-acryloyl-3,5-dimethylpiperazin-1-yl)-10-(4-fluorophenyl)-9-(trifluoromethyl)-2,3-dihydro-5H-[1,4]thiazino[2,3,4-ij]quinazolin-5-one]	96.1%
C=CC(=O)N1[C@H](C)CN(c2nc(=O)n3c4c(c(-c5ccc(F)c(Cl)c5)c(C(F)(F)F)cc24)SCC2(COC2)C3)C[C@@H]1C [Example 1353, 8′-((3S,5R)-4-acryloyl-3,5-dimethylpiperazin-1-yl)-11′-(3-chloro-4-fluorophenyl)-10′-(trifluoromethyl)-2′H,4′H,6′H-spiro[oxetane-3,3′-[1,4]thiazepino[2,3,4-ij]quinazolin]-6′-one]	96.4%
C=CC(=O)N1C[C@H](C)N(c2nc(=O)n3c4c(c(-c5ccc(F)c(Cl)c5)c(C(F)(F)F)cc24)SCC2(COC2)C3)C[C@H]1C [Example 1354, 8′-((2S,5R)-4-acryloyl-2,5-dimethylpiperazin-1-yl)-11′-(3-chloro-4-fluorophenyl)-10′-(trifluoromethyl)-2′H,4′H,6′H-spiro[oxetane-3,3′-[1,4]thiazepino[2,3,4-ij]quinazolin]-6′-one]	96%
C=CC(=O)N1CCN(c2nc(=O)n3c4c(c(-c5ccc(F)c(Cl)c5)c(C(F)(F)F)cc24)SCC2(COC2)C3)CC1 [Example 1357, 8-(4-acryloylpiperazin-1-yl)-11-(3-chloro-4-fluorophenyl)-10-(trifluoromethyl)-2H-spiro[[1,4]thiazepino[2,3,4-ij]quinazoline-3,3′-oxetan]-6(4H)-one]	92.4%
C=CC(=O)N1C[C@H](C)N(c2nc(=O)n3c4c(c(-c5cc(Cl)c(F)cc5F)c(C(F)(F)F)cc24)SCC2(COC2)C3)C[C@H]1C [Example 1357a]	74.3%
C=CC(=O)N1CCN(c2nc(=O)n3c4c(c(-c5ccc(F)cc5)c(C(F)(F)F)cc24)SC[C@@H]3COCOC)CC1 [Example 1358, (S)-7-(4-acryloylpiperazin-1-yl)-10-(4-fluorophenyl)-3-((methoxymethoxy)methyl)-9-(trifluoromethyl)-2H-[1,4]thiazino[2,3,4-ij]quinazolin-5(3H)-one]	96.3%
C=CC(=O)N1[C@H](C)CN(c2nc(=O)n3c4c(c(-c5ccc(F)c(Cl)c5)c(C(F)(F)F)cc24)SC[C@@H]3COCOC)C[C@@H]1C [Example 1359, (S)-7-((3S,5R)-4-acryloyl-3,5-dimethylpiperazin-1-yl)-10-(3-chloro-4-fluorophenyl)-3-((methoxymethoxy)methyl)-9-(trifluoromethyl)-2,3-dihydro-5H-[1,4]thiazino[2,3,4-ij]quinazolin-5-one]	74.6%
